# Reference: publication PMC6324787, “Deletion of genes involved in the ketogluconate metabolism, Entner-Doudoroff pathway, and glucose dehydrogenase increase local and invasive virulence phenotypes in Streptococcus pneumoniae” (PLoS ONE, 2019)
# Key:
# SP 0318 = target: T1, SP 0318 (Streptococcus pneumoniae, UniProt A0A0H2UNG9); test: ADP-glucokinase / G6PDH-coupled NADPH formation, A340; type: biochemical; conditions: 10 mM KDG, 2.5 mM ATP, 10 mM MgCl2, 50 mM Tris-Cl, pH 8.5, 37 °C
# T1 construct: gene SP_0318
# T1 sequence (A0A0H2UNG9 1-333): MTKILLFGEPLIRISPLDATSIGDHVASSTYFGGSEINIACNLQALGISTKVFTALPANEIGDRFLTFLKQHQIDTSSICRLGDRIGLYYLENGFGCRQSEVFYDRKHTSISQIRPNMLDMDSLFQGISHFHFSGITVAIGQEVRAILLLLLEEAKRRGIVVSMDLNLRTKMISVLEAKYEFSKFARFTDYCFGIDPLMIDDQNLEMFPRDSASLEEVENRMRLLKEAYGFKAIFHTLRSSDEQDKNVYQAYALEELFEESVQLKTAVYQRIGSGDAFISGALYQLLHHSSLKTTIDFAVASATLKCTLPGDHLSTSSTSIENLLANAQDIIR
# SP 0320 = target: T2, SP 0320 (Streptococcus pneumoniae, UniProt A0A0H2UNC9); test: NADH oxidation, A340; type: biochemical; conditions: 300 mM potassium 5-keto-D-gluconate, 150 µM NADH, 100 mM Tris-Cl, pH 6.5, 37 °C
# T2 construct: gene SP_0320
# T2 sequence (A0A0H2UNC9 1-271): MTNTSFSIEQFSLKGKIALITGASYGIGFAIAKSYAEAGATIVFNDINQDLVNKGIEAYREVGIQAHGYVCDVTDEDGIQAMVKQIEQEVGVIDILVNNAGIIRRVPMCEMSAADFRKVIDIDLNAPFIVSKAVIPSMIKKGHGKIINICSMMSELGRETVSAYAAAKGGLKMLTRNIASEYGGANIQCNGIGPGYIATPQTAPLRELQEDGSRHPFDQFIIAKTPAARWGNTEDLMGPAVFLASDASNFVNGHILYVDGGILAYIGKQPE
Compound,"ADP-glucokinase / G6PDH-coupled NADPH formation, A340 (SP 0318)","NADH oxidation, A340 (SP 0320)"
Nc1ncnc2c1ncn2[C@@H]1O[C@H](COP(=O)(O)OP(=O)(O)OP(=O)(O)O)[C@@H](O)[C@H]1O [ATP],phosphorylation of 2-keto-3-deoxygluconate (KDG) in the presence of ATP to give KDGP,
NC(=O)C1=CN([C@@H]2O[C@H](COP(=O)(O)OP(=O)(O)OC[C@H]3O[C@@H](n4cnc5c(N)ncnc54)[C@H](O)[C@@H]3O)[C@@H](O)[C@H]2O)C=CC1 [NADH],,reduction of 5-keto-D-gluconate to D-gluconate with the subsequent oxidation of NADH
